Experimental data from BindingDB's records for doi:10.1016/s0960-894x(99)00360-1 (Parke-Davis Pharmaceutical Research, 1999).
pIC50: −log10 of the molar value.

Molecular target: T1, Dimer of Gag-Pol polyprotein [489-587] (Human immunodeficiency virus 1, UniProt P12497)
T1 construct: 489-587
Assay: Protease Inhibition Assay
Settings: pH 6.2; 37 °C
Method: For determination of IC50 values, HIV-1 protease was added to assay buffer containing inhibitor and the substrate (H-His-Lys-Ala-Arg-Val-Leu- (p-NO2) Phe-Glu-Ala-norleucine-Ser-NH2). The Leu- (p-NO2) Phe bond of the substrate was cleaved by the enzyme, and the substrate and products were separated by reversed-phase HPLC. Absorbance was measured at 220 nm, peak areas were determined, and percentage conversion to product was calculated.

| Structure (SMILES) | pIC50 |
| --- | --- |
| CCNS(=O)(=O)Oc1cc(C(C)(C)C)c(SC2C(=O)CC(CCc3ccccc3)(C(C)C)OC2=O)cc1C (stereo unspecified) | 8.05 |
| Cc1cc(SC2C(=O)CC(CCc3ccc(N)cc3)(C(C)C)OC2=O)c(C(C)(C)C)cc1OS(=O)(=O)N1CCN(C)CC1 (stereo unspecified) [4-({6-[2-(4-aminophenyl)ethyl]-4-hydroxy-2-oxo-6-(propan-2-yl)-5,6-dihydro-2H-pyran-3-yl}sulfanyl)-5-tert-butyl-2-methylphenyl 4-methylpiperazine-1-sulfonate] | 9.00 |
| Cc1cc(SC2C(=O)CC(CCc3ccc(N)cc3)(C(C)C)OC2=O)c(C(C)(C)C)cc1OS(=O)(=O)N(C)C (stereo unspecified) [4-({6-[2-(4-aminophenyl)ethyl]-4-hydroxy-2-oxo-6-(propan-2-yl)-5,6-dihydro-2H-pyran-3-yl}sulfanyl)-5-tert-butyl-2-methylphenyl N,N-dimethylsulfamate] | 8.41 |
| CCNS(=O)(=O)Oc1cc(C(C)(C)C)c(SC2C(=O)CC(CCc3ccc(N)cc3)(C(C)C)OC2=O)cc1C (stereo unspecified) [4-({6-[2-(4-aminophenyl)ethyl]-4-hydroxy-2-oxo-6-(propan-2-yl)-5,6-dihydro-2H-pyran-3-yl}sulfanyl)-5-tert-butyl-2-methylphenyl N-ethylsulfamate] | 8.37 |
| Cc1cc(SC2C(=O)CC(CCc3ccc(O)cc3)(C(C)C)OC2=O)c(C(C)(C)C)cc1OS(=O)(=O)N1CCN(C)CC1 (stereo unspecified) [5-tert-butyl-4-({4-hydroxy-6-[2-(4-hydroxyphenyl)ethyl]-2-oxo-6-(propan-2-yl)-5,6-dihydro-2H-pyran-3-yl}sulfanyl)-2-methylphenyl 4-methylpiperazine-1-sulfonate] | 8.51 |
| CNS(=O)(=O)Oc1cc(C(C)(C)C)c(SC2C(=O)CC(CCc3ccc(O)cc3)(C(C)C)OC2=O)cc1C (stereo unspecified) [5-tert-butyl-4-({4-hydroxy-6-[2-(4-hydroxyphenyl)ethyl]-2-oxo-6-(propan-2-yl)-5,6-dihydro-2H-pyran-3-yl}sulfanyl)-2-methylphenyl N-methylsulfamate] | 8.92 |
| CCCNS(=O)(=O)Oc1cc(C(C)(C)C)c(SC2C(=O)CC(CCc3ccc(O)cc3)(C(C)C)OC2=O)cc1C (stereo unspecified) [5-tert-butyl-4-({4-hydroxy-6-[2-(4-hydroxyphenyl)ethyl]-2-oxo-6-(propan-2-yl)-5,6-dihydro-2H-pyran-3-yl}sulfanyl)-2-methylphenyl N-propylsulfamate] | 8.52 |
| Cc1cc(SC2C(=O)CC(CCc3ccc(O)cc3)(C(C)C)OC2=O)c(C(C)(C)C)cc1OS(=O)(=O)N1CCOCC1 (stereo unspecified) [5-tert-butyl-4-({4-hydroxy-6-[2-(4-hydroxyphenyl)ethyl]-2-oxo-6-(propan-2-yl)-5,6-dihydro-2H-pyran-3-yl}sulfanyl)-2-methylphenyl morpholine-4-sulfonate] | 8.59 |
| CCNS(=O)(=O)Oc1cc(C(C)(C)C)c(SC2C(=O)CC(CCc3ccc(O)cc3)(c3ccccc3)OC2=O)cc1C (stereo unspecified) [5-tert-butyl-4-({4-hydroxy-6-[2-(4-hydroxyphenyl)ethyl]-2-oxo-6-phenyl-5,6-dihydro-2H-pyran-3-yl}sulfanyl)-2-methylphenyl N-ethylsulfamate] | 7.59 |
| Cc1cc(SC2C(=O)CC(C)(CCc3ccc(O)cc3)OC2=O)c(C(C)(C)C)cc1OS(=O)(=O)N1CCN(C)CC1 (stereo unspecified) [5-tert-butyl-4-({4-hydroxy-6-[2-(4-hydroxyphenyl)ethyl]-6-methyl-2-oxo-5,6-dihydro-2H-pyran-3-yl}sulfanyl)-2-methylphenyl 4-methylpiperazine-1-sulfonate] | 8.15 |
| Cc1cc(SC2C(=O)CC(C)(CCc3ccc(O)cc3)OC2=O)c(C(C)(C)C)cc1OS(=O)(=O)N(C)C (stereo unspecified) [5-tert-butyl-4-({4-hydroxy-6-[2-(4-hydroxyphenyl)ethyl]-6-methyl-2-oxo-5,6-dihydro-2H-pyran-3-yl}sulfanyl)-2-methylphenyl N,N-dimethylsulfamate] | 8.80 |
| CCNS(=O)(=O)Oc1cc(C(C)(C)C)c(SC2C(=O)CC(C)(CCc3ccc(O)cc3)OC2=O)cc1C (stereo unspecified) [5-tert-butyl-4-({4-hydroxy-6-[2-(4-hydroxyphenyl)ethyl]-6-methyl-2-oxo-5,6-dihydro-2H-pyran-3-yl}sulfanyl)-2-methylphenyl N-ethylsulfamate] | 8.64 |
| CCCNS(=O)(=O)Oc1cc(C(C)(C)C)c(SC2C(=O)CC(C)(CCc3ccc(O)cc3)OC2=O)cc1C (stereo unspecified) [5-tert-butyl-4-({4-hydroxy-6-[2-(4-hydroxyphenyl)ethyl]-6-methyl-2-oxo-5,6-dihydro-2H-pyran-3-yl}sulfanyl)-2-methylphenyl N-propylsulfamate] | 8.21 |
| Cc1cc(SC2C(=O)CC(CCc3ccc(O)cc3)(C3CCCCC3)OC2=O)c(C(C)(C)C)cc1OS(=O)(=O)N1CCN(C)CC1 (stereo unspecified) [5-tert-butyl-4-({6-cyclohexyl-4-hydroxy-6-[2-(4-hydroxyphenyl)ethyl]-2-oxo-5,6-dihydro-2H-pyran-3-yl}sulfanyl)-2-methylphenyl 4-methylpiperazine-1-sulfonate] | 8.01 |
| Cc1cc(SC2C(=O)CC(CCc3ccc(O)cc3)(C3CCCCC3)OC2=O)c(C(C)(C)C)cc1OS(=O)(=O)N(C)C (stereo unspecified) [5-tert-butyl-4-({6-cyclohexyl-4-hydroxy-6-[2-(4-hydroxyphenyl)ethyl]-2-oxo-5,6-dihydro-2H-pyran-3-yl}sulfanyl)-2-methylphenyl N,N-dimethylsulfamate] | 7.70 |
| CCNS(=O)(=O)Oc1cc(C(C)(C)C)c(SC2C(=O)CC(CCc3ccc(O)cc3)(C3CCCCC3)OC2=O)cc1C (stereo unspecified) [5-tert-butyl-4-({6-cyclohexyl-4-hydroxy-6-[2-(4-hydroxyphenyl)ethyl]-2-oxo-5,6-dihydro-2H-pyran-3-yl}sulfanyl)-2-methylphenyl N-ethylsulfamate] | 8.32 |
| Cc1cc(SC2C(=O)CC(CCc3ccccc3)(C(C)C)OC2=O)c(C(C)(C)C)cc1OS(=O)(=O)N1CCN(C)CC1 (stereo unspecified) [5-tert-butyl-4-{[4-hydroxy-2-oxo-6-(2-phenylethyl)-6-(propan-2-yl)-5,6-dihydro-2H-pyran-3-yl]sulfanyl}-2-methylphenyl 4-methylpiperazine-1-sulfonate] | 8.41 |
| Cc1cc(SC2C(=O)CC(C)(CCc3ccc(O)cc3)OC2=O)c(C(C)(C)C)cc1O (stereo unspecified) [6-Alkyl-5,6-Dihydropyran-2-one 13] | 8.19 |
| CCNS(=O)(=O)Oc1cc(C(C)(C)C)c(SC2C(=O)CC(CCc3ccc(O)cc3)(C(C)C)OC2=O)cc1C (stereo unspecified) [6-Alkyl-5,6-Dihydropyran-2-one 20] | 8.31 |
| Cc1cc(SC2C(=O)CC(CCc3ccc(O)cc3)(C(C)C)OC2=O)c(C(C)(C)C)cc1OS(=O)(=O)N(C)C (stereo unspecified) [6-Alkyl-5,6-Dihydropyran-2-one 22] | 8.47 |
| Cc1cc(SC2C(=O)CC(C)(CCc3ccc(O)cc3)OC2=O)c(C(C)(C)C)cc1OS(N)(=O)=O (stereo unspecified) [[5-tert-butyl-4-({4-hydroxy-6-[2-(4-hydroxyphenyl)ethyl]-6-methyl-2-oxo-5,6-dihydro-2H-pyran-3-yl}sulfanyl)-2-methylphenyl] sulfamate] | 8.74 |
